Key:
[1] = in vitro permeability in Caco2 cells; details: human; for Papp A→B at 2 h, 10 μM: Caco2 cells, assay conc. 10 μM
[2] = tested on: human enteroendocrinal L cells (NCI-H716); test: In vitro GLP-1 secretion assay; type: cell-based; details: L cells pretreated with compound
Experimental: In vitro GLP-1 secretion assay was performed in human enteroendocrinal L cells (NCI-H716). For each secretion assay, cells were seeded at 1×10^5 cells/ml (1 ml/well) in a matrigel-coated 24-well plate. Prior to GLP-1 secretion assay, cells were pre-treated with DMSO, 1 μM Fex, or 1 μM Fex-D overnight. Cells were deprived in Krebs buffer (with 0.1% BSA) with dipeptidyl peptidase (DPP)-4 inhibitor ([…] sitagliptin). GLP-1 was measured with a commercial kit (EZGLP1T-36K, Millipore). For in vivo GLP-1 secretion, each animal was gavaged with 25 mg per kg of body weight sitagliptin 60-minutes before glucose load. Blood was collected from the tail vein at the indicated intervals, and transferred to serum collection tubes containing sitagliptin.

enteroendocrinal L cells = test: Gene expression analysis (QPCR) in enteroendocrinal L cells; type: cell-based, human
ob/ob mice = test: gene expression (RNA-Seq, QPCR) in tissues of treated ob/ob mice; type: in vivo, mouse; details: INT-777 60 mg/kg P.O. for 5 weeks
Experimental: Total RNA was isolated from cell pellets treated with RNAlater using the RNA mini kit (Qiagen) and treated with DNaseI (Qiagen) for 30 minutes at room temperature. Sequencing libraries were prepared from 100-500 ng total RNA using the TruSeq RNA Sample Preparation Kit v2 (Illumina) according to the manufacturer's protocol. Briefly, mRNA was purified, fragmented, and used for first-, then second-strand cDNA synthesis followed by adenylation of 3′ ends. Samples were ligated to unique adapters and subjected to PCR amplification. Mulitplexed libraries were then validated using the 2100 BioAnalyzer (Agilent), normalized, and pooled for sequencing. RNA-Seq libraries prepared from two biological replicates for each experimental condition were sequenced on the Illumina HiSeq 2500 using bar-coded multiplexing and a 100 bp read length.
Image analysis and base calling were performed with Illumina CASAVA-1.8.2. This yielded a median of 29.9M usable reads per sample. Short read sequences were mapped to a UCSC mm9 reference sequence using the RNA-seq aligner STAR. Known splice junctions from mm9 were supplied to the aligner and de novo junction discovery was also permitted. Differential gene expression analysis, statistical testing and annotation were performed using Cuffdiff 2. Transcript expression was calculated as gene-level relative abundance in fragments per kilobase of exon model per million mapped fragments and employed correction for transcript abundance bias. RNA-Seq results for genes of interest were also explored visually using the UCSC Genome Browser.

in vitro = details: human
NCI-H716 cells = test: Extracellular oxygen consumption rate assay (Seahorse XF96); type: cell-based, human
Experimental: Briefly, NCI-H716 cells were seeded in XF 96-well cell culture microplates (Seahorse Bioscience) at 6.0×10^4 cells per well in 150 μl of growth medium and then incubated at 37° C./5% CO2 for 24 hr. A Seahorse Bioscience instrument model XF96 was used to measure the rate of change of dissolved oxygen in the media surrounding the cells. All procedures followed manufacturer's instructions. […] Conversely, treatment with the FXR antagonist guggulsterone reduced basal respiratory rates and the FCCP-induced maximum respiration rate (FIGS. 9A and 9B). To examine the effects of FXR activity on the secretion of GLP-1, the metabolic changes induced in human L cells was measured after treatment with the FXR agonist, fexaramine and an FXR antagonist, guggulsterone. Treatment of L cells with fexaramine (1 μM for 24 hours) lead to an increase in the oxygen consumption rate (OCR), consistent with increased mitochondrial activity and consequently, an increased energetic state (FIG. 9A). The reverse effect was seen after treatment with the FXR antagonist, guggulsterone, with lower OCR after drug treatment.

[3] = tested on: pancreatic islets from ob/ob mice; test: Insulin secretion assay on isolated pancreatic islets (ex vivo); type: cell-based, mouse; details: islets, 100 nM Exendin-4
Experimental: Mouse pancreatic islets were isolated from ob/ob mice according to a method used for rats traditionally. Briefly, 0.5 mg/ml collagenase P (Roche) diluted in HBSS buffer was injected through the common bile duct and the perfused pancreas was dissected and incubated in water bath with 37° C. for 21 minutes. Digested exocrine cells and intact islets were separated using Histopaque-1077 (SIGMA) with centrifugation by 900 g for 15 minutes and intact islets were picked up manually.
Insulin release from intact islets was monitored using batch incubation methods.
Isolated pancreatic islets were cultured over-night with […] supplemented with 10% (v/v) fetal bovine serum and 1% (v/v) Antibiotics-antimycotic solution, were pre-cultured at 37° C. for 30 minutes in Krebs Ringer bicarbonate buffer (KRBH) containing 129.4 mM NaCl, 3.7 mM KCl, 2.7 mM CaCl2, 1.3 mM KH2PO4, 1.3 mM MgSO4, 24.8 mM NaHCO3 (equilibrated with 5% CO2, 95% O2, pH7.4), 10 mM HEPES and 0.2% (v/v) BSA (fraction V) with 3 mM glucose. N ext, the pancreatic islets were incubated for 30 minutes KRBH buffer (500 μl/10 islets) with 3 mM or 20 mM glucose with or without 100 nM Exendin-4 to determine insulin secretion levels. At the end of the incubation period, islets were pelleted by centrifugation, and aliquots of the buffer were sampled. The amounts of insulin were determined by Rat/mouse Insulin ELISA KIT (Millipore) for mice islets.

isolated islets = test: gene expression after direct ex vivo treatment of isolated islets; type: cell-based, mouse; details: 24 hours ex vivo, XL335 1 μM, Fex 1 μM
Experimental: Leptin-deficient ob/ob mice were treated daily with vehicle, Fex, or the analogue Fex-D (50 mg/kg) via P.O. for 14 days (A) Chemical structures of fexaramine and Fex-D (B) Schematic of the experimental design (C) Serum glucose levels (D) Glucose tolerance test (E) Insulin secretion in vivo (F) GLP-1 secretion in vivo (G) Heatmap showing hierarchal clustering of gene expression changes in islet induced by Fex (100 mg/kg, 4 wks) and FexD (50 mg/kg, 2 weeks) treatment in ob/ob mice (in vivo); by treatment of islets with XL335 (1 μM), Fex (1 μM), mFgf15 and hFgf19 (24 hours ex vivo); and mFgf15 (0.15 mg/kg, 2 weeks) and INT777 (Tgr5, 60 mg/kg, 4 weeks) treatment of ob/ob mice (in vivo). Gene expression was measured by RNA-Seq and changes are expressed as Z-score. (H) Ven diagram of changes in gene expression in pancreatic islets induced by FEX (100 mg/kg for 5 weeks) and FEX-D (50 mg/kg for 14 days). […] Data represent the mean±STD. Statistical analysis was performed with the Student's t test. *p<0.05, **p<0.01.
Next, primary islets were isolated from mice treated by Fex-D to compare gene expression changes.

[4] = Caco-2, A-B Permeability Ranking
[5] = Caco-2, Mean Papp, A-B, 2 hour incubation

| Compound | Papp B→A at 2 h, 10 μM ([1]; Caco-2) [×10⁻⁶ cm/s] | recovery at 2 h, 10 μM ([1]; Caco-2) [%] | Papp A→B at 2 h, 10 μM [1, 4] [×10⁻⁶ cm/s] | Papp A→B at 2 h, 10 μM [1, 5] [×10⁻⁶ cm/s] | other results |
| --- | --- | --- | --- | --- | --- |
| CNC(=C[N+](=O)[O-])NCCSCc1ccc(CN(C)C)o1 [Ranitidine] | 0.922 | 92.7 | < 1 | 0.274 | efflux ratio at 2 h, 10 μM ([1]; Caco-2): 3.36 |
| CC[C@H]1[C@@H](O)[C@@H]2[C@H](C[C@H](O)[C@]3(C)[C@@H]([C@H](C)C[C@H](C)C(=O)O)CC[C@@H]23)[C@@]2(C)CC[C@@H](O)C[C@@H]12 [INT-777] | – | – | – | – | GLP-1 secretion in response to a glucose challenge [2]: increased; SHP expression (FXR target gene) (enteroendocrinal L cells): not; proglucagon expression (enteroendocrinal L cells): selectively induced; expression of the GLP-1 receptor in islets (ob/ob mice): significantly increased |
| CC(=O)CC(c1ccccc1)c1c(O)c2ccccc2oc1=O (stereo not shown) [Warfarin] | – | – | – | – | Papp B→A at 2 h, 10 μM (in vitro; Caco-2): 29.8 ×10⁻⁶ cm/s; efflux ratio at 2 h, 10 μM (in vitro; Caco-2): 0.695; recovery at 2 h, 10 μM (in vitro; Caco-2): 101%; Papp A→B at 2 h, 10 μM (in vitro; [4]): > 1 ×10⁻⁶ cm/s; Papp A→B at 2 h, 10 μM (in vitro; Caco-2, Mean Papp, A-B): 42.8 ×10⁻⁶ cm/s |
| C/C=C1\C(=O)C[C@H]2[C@@H]3CCC4=CC(=O)CC[C@]4(C)[C@H]3CC[C@]12C [guggulsterone] | – | – | – | – | basal respiratory rates and the FCCP-induced maximum respiration rate (NCI-H716 cells; L cells, guggulsterone 10 μM for 24 hr): reduced; oxygen consumption rate (OCR) (NCI-H716 cells; human L cells, 24 hours, fexaramine 1 μM, guggulsterone 10 μM): lower |
| [2H]C(c1ccc(-c2ccc3c(cnn3C)c2)cc1F)N(C(=O)C1CCCCC1)c1cccc(/C=C/C(=O)OC)c1 (stereo not shown) [NSSK 00089] | 0.064 | 67.1 | < 1 | 0.0962 | – |
| Exendin-4: GLP-1 agonist | – | – | – | – | ex vivo insulin secretion in presence of GLP-1 agonist [3]: further potentiated |
| CC(C)OC(=O)C1=CN(C(=O)c2ccc(F)c(F)c2)CC(C)(C)c2c1[nH]c1ccccc21 [XL335] | – | – | – | – | transcriptional changes seen in islets in vivo with Fex and Fex-D (isolated islets): not observed |
| [2H]C(c1ccc(-c2ccc(N(C)C)cc2)cc1)N(C(=O)[C@@H]1C[C@@H]2CC[C@H]1C2)c1cc(F)cc(/C=C/C(=O)OC)c1 (stereo partly shown) [NSSK 00024] | 0.23 | 192 | < 1 | 0.0294 | – |
| [2H]C(c1ccc(-c2ccc3c(cnn3C)c2)cc1)N(C(=O)C1CCCCC1)c1cc(F)cc(/C=C/C(=O)OC)c1 (stereo not shown) [NSSK 00096] | 0.0399 | 69.9 | < 1 | 0.0104 | – |
| hFgf19: hFgf19 protein used for direct ex vivo treatment of isolated islets | – | – | – | – | transcriptional changes seen in islets in vivo with Fex and Fex-D (isolated islets): not observed |

Source: patent US20180000768A1, “INTESTINAL FXR AGONISM ENHANCES GLP-1 SIGNALING TO RESTORE PANCREATIC BETA CELL FUNCTIONS” (Salk Institute for Biological Studies, priority 2015, published 2018)
